“And” between values parts separate entries of the source, which are not always exact repeats. Equal entries are not always repeated.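 Where inhibition never reached the appropriate level, the endpoint shown equals the highest concentration tested. Otherwise, values were interpolated linearly from a five-concentration, 48-hour dose response in 96-well plates. Here, GI50 denotes the concentration required for 50% inhibition of growth. Definition used: TGI = concentration required for complete inhibition of growth.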
What was measured:
Assay in all cases: growth of human tumour cells (NCI), 48 h
M14 melanoma = test system: M14 melanoma
EKVX NSCLC = test system: EKVX NSCLC
HOP-62 NSCLC = test system: HOP-62 NSCLC
HCT-15 colon = test system: HCT-15 colon
ACHN renal = test system: ACHN renal
MALME-3M melanoma = test system: MALME-3M melanoma
SF-295 CNS = test system: SF-295 CNS
SF-539 CNS = test system: SF-539 CNS
RXF 393 renal = test system: RXF 393 renal
SN12C renal = test system: SN12C renal

Compound | GI50 (M14 melanoma) | TGI (M14 melanoma) | GI50 (EKVX NSCLC) | TGI (EKVX NSCLC) | GI50 (HOP-62 NSCLC) | TGI (HOP-62 NSCLC) | GI50 (HCT-15 colon) | TGI (HCT-15 colon) | GI50 (ACHN renal) | TGI (ACHN renal) | GI50 (MALME-3M melanoma) | TGI (MALME-3M melanoma) | GI50 (SF-295 CNS) | TGI (SF-295 CNS) | GI50 (SF-539 CNS) | TGI (SF-539 CNS) | GI50 (RXF 393 renal) | TGI (RXF 393 renal) | TGI (SN12C renal) | GI50 (SN12C renal)
CCc1nc2cc(/C=C/C(=O)NO)c(F)cc2c(=O)n1CCc1ccccc1 | 1.15 µM | 3.8 µM | 2.36 µM | 10.7 µM | 1.05 µM | 5.98 µM | 0.461 µM | 16.5 µM | 0.744 µM | 2.9 µM | 0.944 µM | 10.4 µM | 1.89 µM | 4.35 µM | 0.874 µM | 5.8 µM | 0.99 µM | 3.56 µM | – | –
COc1ccc2c(CCNS(=O)(=O)c3ccccc3)c(C(C)=O)[nH]c2c1[N+](=O)[O-] | – | > 100 µM | – | – | – | > 100 µM | – | > 100 µM | – | > 100 µM | – | – | – | > 100 µM | – | 77.7 µM | – | – | > 100 µM | –
CCN(CC)CCNc1ccc(CO)c2sc3ccccc3c(=O)c12 | 1.99 µM and 12.4 µM and 2.03 µM | 4.2 µM and 25.1 µM and 4.3 µM | 3.92 µM and 16.2 µM | 28.7 µM [middle of 4 runs] | – | 26 µM [middle of 4 runs] | – | – | 2.35 µM and 6.73 µM and 2.58 µM | 7.94 µM and 24.5 µM and 15.9 µM | – | – | 2.98 µM and 5.31 µM | 21.1 µM [middle of 4 runs] | 4.53 µM and 7.78 µM and 16.7 µM | 24.1 µM [middle of 4 runs] | 2.23 µM and 7.35 µM | 8.45 µM and 19 µM and 20.3 µM | 20 µM [middle of 4 runs] | 6.55 µM [middle of 4 runs]
S=C(S)NCCCn1ccnc1 | – | > 100 µM | – | > 100 µM | – | > 100 µM | – | > 100 µM | – | > 100 µM | – | > 100 µM | – | > 100 µM | – | > 100 µM | – | – | > 100 µM | –
COc1ccccc1NC(=O)N/C(N)=N/c1nc2ccccc2s1 | 0.0788 µM | > 100 µM | 0.409 µM | > 100 µM | 0.111 µM | > 100 µM | 0.0526 µM | > 100 µM | 0.327 µM | > 100 µM | – | – | 0.0418 µM | – | 0.0718 µM | 0.411 µM | 0.0402 µM | 0.731 µM | > 100 µM | 0.307 µM
COc1cc2c(c(OC)c1OC)C(=O)c1c-2n(CCCN)c(=O)c2cc([N+](=O)[O-])ccc12 | 1.35 µM | 2.82 µM | 3.02 µM | 8.32 µM | 0.958 µM | 2.6 µM | – | – | – | – | – | – | 1.64 µM | 3.39 µM | 0.55 µM | 1.16 µM | – | – | 13.6 µM | 5.11 µM
Cc1cc2cc(Oc3ccnc(Nc4cccc(CS(=O)(=O)NCCN(C)C)c4)n3)ccc2[nH]1 | – | – | 12.2 µM | 26.7 µM | 7 µM | 21.6 µM | 11 µM | 24.2 µM | 7.22 µM | 20.3 µM | 2.96 µM | 10.5 µM | 8.04 µM | 21.5 µM | 3.05 µM | 13.3 µM | 3.48 µM | 15.8 µM | 19.2 µM | 5.81 µM
COc1ccc2c3c([nH]c2c1[N+](=O)[O-])C(C)N(C(=O)/C=C/c1ccccc1)CC3 (stereo not given) | – | > 100 µM | – | > 100 µM | – | 70.4 µM | – | > 100 µM | – | > 100 µM | – | – | – | 5.88 µM | – | 23.2 µM | – | 24.1 µM | > 100 µM | –
CC(C)(C)c1ccc(NC(=O)c2cc(=O)c3ccccc3[nH]2)c(C(C)(C)C)c1O | 3.81 µM | 13.9 µM | – | – | 12.5 µM | 25.3 µM | 4.32 µM | 15.5 µM | 4.13 µM | 12.8 µM | 12.1 µM | 26.3 µM | 6.25 µM | 20.2 µM | 13 µM | 26.3 µM | 2.31 µM | 5.16 µM | 24.4 µM | 9.81 µM
O=C(/C=C/c1ccccc1)c1ccc(O)c(CN2CCN(c3cc4c(cc3F)c(=O)c(C(=O)O)cn4C3CC3)CC2)c1 | 1 µM | > 100 µM | 3.66 µM | > 100 µM | 3.22 µM | > 100 µM | 2.64 µM | > 100 µM | 1.9 µM | 13.9 µM | 0.769 µM | 15.6 µM | 2.05 µM | 26.1 µM | 0.465 µM | > 100 µM | 1.55 µM | 15.8 µM | – | –
CC(=O)c1ccc(NCn2nc(-c3ccccc3O)oc2=S)cc1 | > 100 µM | > 100 µM | > 100 µM | > 100 µM | > 100 µM | > 100 µM | 23.4 µM | 49.3 µM | 29.6 µM | 71.9 µM | – | – | > 100 µM | > 100 µM | – | – | 24.6 µM | 72.8 µM | 64.9 µM | 27 µM
O=C(Oc1ccccc1Cl)c1cccnc1Nc1ccnc(C(F)(F)F)c1 | – | – | 32.6 µM | 84.3 µM | 19 µM | 37 µM | 14.6 µM | 29.1 µM | 22 µM | 50.2 µM | 8.29 µM | 41.1 µM | 21.3 µM | 52.5 µM | 13.4 µM | 39.8 µM | 19.1 µM | 42.6 µM | 18 µM | 4.03 µM
CN1NC(c2ccccc2)=C(C#N)C(=O)CC1c1ccccc1Cl (stereo not given) | – | > 100 µM | – | – | – | 94.1 µM | – | > 100 µM | – | > 100 µM | – | > 100 µM | – | > 100 µM | – | – | – | > 100 µM | > 100 µM | –
CC(=O)OC1CC(C)c2c1ncnc2N1CCN(C(=O)OC(C)(C)C)CC1 (stereo not given) | 30.4 µM | > 100 µM | – | – | 45.4 µM | > 100 µM | 55.3 µM | > 100 µM | 80.7 µM | > 100 µM | 35.5 µM | > 100 µM | – | – | 30.8 µM | > 100 µM | 31.9 µM | > 100 µM | > 100 µM | 79.4 µM
C/C(=C\c1ccccc1)C(O)S(=O)(=O)O (stereo not given) | – | > 100 µM | – | > 100 µM | – | > 100 µM | – | > 100 µM | – | > 100 µM | – | > 100 µM | – | > 100 µM | – | – | – | > 100 µM | > 100 µM | –
C#Cc1cccc(N2C(=O)CC(=P(c3ccccc3)(c3ccccc3)c3ccccc3)C2=O)c1 | – | > 100 µM | – | > 100 µM | – | > 100 µM | – | – | – | > 100 µM | – | > 100 µM | – | > 100 µM | – | – | – | – | > 100 µM | –
COc1cc2c(C#N)n3c(c2cc1OC)C(=O)C(c1ccccc1)Oc1ccccc1-3 (stereo not given) | – | – | – | – | 3.64 µM | > 100 µM | – | – | – | – | > 100 µM | > 100 µM | 4.1 µM | > 100 µM | 19.8 µM | > 100 µM | 3.29 µM | 19.5 µM | – | –

Reference: PubChem BioAssay (NCI)
